Source: patent US4599331A, “Etianic acids as antiangiogenics” (Syntex (U.S.A.) Inc., priority 1984, dated 1986)
Where “and” joins values, the source holds several entries; their conditions need not be identical. Equal values may be shown once.

Legend:
glucocorticoid receptor = target: T1, glucocorticoid receptor (Mus musculus, UniProt P06537); assay: competition for 3H-dexamethasone binding sites in LE II cytosol (glucocorticoid receptor affinity); details: Table 1; displacement of 25 nM 3H-DEX, LE II (mouse lung capillary endothelial) cytosol, 3 hours on ice; read-out: IC50 Binding LEII
T1 construct: endogenous in cells; host or cells: LE II (mouse lung capillary endothelial) cells, 100,000 x g cytosol
T1 sequence (P06537 1-792): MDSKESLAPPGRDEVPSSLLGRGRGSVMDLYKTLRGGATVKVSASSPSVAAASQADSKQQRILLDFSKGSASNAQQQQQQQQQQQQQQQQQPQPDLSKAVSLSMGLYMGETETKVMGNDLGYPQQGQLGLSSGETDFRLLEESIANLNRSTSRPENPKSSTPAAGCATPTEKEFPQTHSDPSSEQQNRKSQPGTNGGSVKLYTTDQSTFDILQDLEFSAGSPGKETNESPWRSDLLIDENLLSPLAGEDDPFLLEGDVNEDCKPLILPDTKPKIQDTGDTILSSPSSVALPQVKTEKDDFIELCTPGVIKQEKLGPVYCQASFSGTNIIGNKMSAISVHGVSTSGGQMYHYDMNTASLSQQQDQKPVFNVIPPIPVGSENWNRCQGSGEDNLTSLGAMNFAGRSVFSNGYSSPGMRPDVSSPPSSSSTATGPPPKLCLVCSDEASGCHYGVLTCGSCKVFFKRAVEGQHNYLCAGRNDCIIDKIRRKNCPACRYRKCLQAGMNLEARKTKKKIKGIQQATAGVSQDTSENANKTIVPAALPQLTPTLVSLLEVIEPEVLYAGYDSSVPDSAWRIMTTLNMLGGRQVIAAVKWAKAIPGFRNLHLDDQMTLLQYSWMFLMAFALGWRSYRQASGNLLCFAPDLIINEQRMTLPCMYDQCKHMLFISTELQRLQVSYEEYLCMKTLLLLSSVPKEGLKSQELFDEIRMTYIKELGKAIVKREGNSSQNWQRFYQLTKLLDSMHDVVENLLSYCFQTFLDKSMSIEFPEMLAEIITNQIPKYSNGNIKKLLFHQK
Method: LE II (mouse lung capillary endothelial) or HTC (rat hepatoma) cells were grown in Dulbecco's modified Eagle's (DMEM) medium plus 10% fetal calf serum (FCS), in 150 cm^2 T-flasks. Approximately 20 flasks of LE II cells or 10 flasks of HTC cells were needed for a 60-80 sample assay.
Cell monolayers were washed 3 times with Phosphate Buffered Saline (PBS) and harvested by scraping with a rubber policeman into an ice-cold sonication buffer of 0.25M sucrose; 10 mM Tris-HCl, pH 7.4; 5 mM ethylenediaminetetraacetic acid (EDTA); 5 mM dithiothereitol; and 10 mM sodium molybdate. All subsequent steps were performed at 4° C. The cells were pooled into a final volume of 8-12 mls, broken by sonication for 45 seconds with the microtip of a Branson sonifier at setting #3 and the residue was then centrifuged at 100,000 X g for 30 minutes with a Beckman L8-50, Ti50 rotor, at 40,000 rpm. […] Incubations were peformed in a final volume of 1 ml in 1.5 ml Eppendorf centrifuge tubes for 3 hours on ice.
Fine Sephadex G-50 gel was swollen and equilibrated against column buffer of 100 mM Tris-HCl, pH 7.8; and 3 mM CaCl2. Columns were poured to a final packed volume of 4.5 ml in 5 ml plastic disposable pipets.
The packed columns were then drained of buffer and the 1 ml incubated samples were applied to each. The samples were washed into the columns with 0.5 ml of column buffer, and the exclusion volumes containing the protein peaks were eluted with another 1 ml of column buffer and collected. Aliquots of 750 μl of Biorad protein reagent were diluted 1:5 in H2 O. OD630 nm reading were compared with those obtained for a bovine serum albumin standard curve.

[1] = test system: Hamster Melanoma RPM1 1846 tumor cells; assay: hamster cheek pouch (HCP) angiogenesis inhibition, 1846 tumor cell stimulus; type: in vivo, Male Syrian Golden hamsters; details: Table 1; 3×10^5 tumor cells; between 0.5 and 4 mg/kg s.c. daily; each number independent result, average of six animals
Method: Each compound of the series was also tested for anti-angiogenic activity by an in vivo test that measured vascularization in a hamster's cheek pouch in response to either an angiogenic polypeptide growth factor, epidermal growth factor (EGF) or an induced […].
(§1) In this example, the in vivo angiogenesis inhibition activity of etianic acid esters was tested. Male Syrian Golden hamsters, weighing between 120 g and 150 g were anaesthetized by intraperitoneal (I.P.) injection of a rodent anaesthetic mixture consisting of 50 mg/kg ketamine hydrochloride, 5 mg/kg xylazine and 1 mg/kg acepromazine. The left cheek pouch of each animal was everted with a pincet and pinned down to a plexiglass-rubber stage and observed through a Zeiss stereomicroscope. 10 μg of EGF or 3×10^5 Hamster Melanoma RPM1 1846 tumor cells in 10 μl Cibachrome Blue agarose (Amicon) were injected subcutaneously in the left lower quadrant of the pouch with a Hamilton syringe.
(§2) The pouch was then reinserted and animals were kept under observation until recovered from anaesthesia.
The animals were dosed daily with one test compound, starting one day before stimulus injection and continuing until observation. The test compounds were dissolved in a minimum volume of ethanol and diluted in sterile phosphate buffer solution. […]
(§3) Either five days or twelve days after the EGF or tumor cell injection, animals were anaesthetized by I.P. injection of the rodent anaesthetic mixture. The pouch was everted on the stage and examined under the stereomicroscope. Pictures were taken with a 35 mm using Kodak Tungsten 50 professional films.
(§4) The following subjective scoring was used for evaluating the photographs:
(§5) 1: minimal branching of vessels in the vicinity of injection site.
(§6) 2: new vessels reach injection site, area involved is minimal (<50% of area surrounding injection site).
(§7) 3: many vessels reach and cross injection site, new vessels are tortuous, (>50% of area surrounding injection site).
(§8) 4: "full blown", many tortuous vessels, leakages, hemorrhages, 100% of area around injection site, invasion of new vessels into non-injected areas.
(§9) In the case of the tumor, tumor size was also determined. (See Table 4)
(§10) Results are expressed as the mean of the score. The results are shown in Tables 1 and 2 are percent inhibition of HCP Stimulus.

[2] = test system: Hamster Melanoma RPM1 1846 tumor cells; assay: Inhibition of tumor growth (2 week assay); type: in vivo, Male Syrian Golden hamsters; details: Table 3, dose 0.8 mg/kg
Method: as §1, §2
The animals were dosed daily with one test compound, starting one day before stimulus injection and continuing until observation. The test compounds were dissolved in a minimum volume of ethanol and diluted in sterile phosphate buffer solution. Then between 0.5 and 4 mg/kg of the test compound was injected subcutaneously.
as §3, §4, §5, §6, §7, §8, §9, §10

## CCC(=O)O[C@]1(C(=O)OC)[C@@H](C)C[C@H]2[C@@H]3CCC4=CC(=O)C=C[C@]4(C)[C@@]3(F)[C@@H](O)C[C@@]21C [compound 1]
Glucocorticoid receptor
  IC50: 2 nM
[1]
  % Inhibition HCP Stimulus 1846: 40%

## CCC(=O)O[C@]1(C(=O)OC)[C@@H](C)C[C@H]2[C@@H]3CC(F)C4=C(F)C(=O)C=C[C@]4(C)[C@@]3(F)[C@@H](O)C[C@@]21C (stereo partly drawn) [compound 3]
Glucocorticoid receptor
  IC50: 15 nM
[1]
  % Inhibition HCP Stimulus 1846: 70%

## CCCC(=O)O[C@]1(C(=O)OC)[C@@H](C)C[C@H]2[C@@H]3CC(F)C4=CC(=O)C=C[C@]4(C)[C@@]3(F)[C@@H](O)C[C@@]21C (stereo partly drawn) [compound 4]
Glucocorticoid receptor
  IC50: 0.25 nM
[1]
  % Inhibition HCP Stimulus 1846: 26%

## CCC(=O)O[C@]1(C(=O)OC)[C@H](C)C[C@H]2[C@@H]3CC(F)C4=CC(=O)C=C[C@]4(C)[C@@]3(F)[C@@H](O)C[C@@]21C (stereo partly drawn) [compound 7]
Glucocorticoid receptor
  IC50: 0.25 nM

## CCC(=O)O[C@]1(C(=O)OC)[C@H](C)C[C@H]2[C@@H]3CC(F)C4=C(F)C(=O)C=C[C@]4(C)[C@@]3(F)[C@@H](O)C[C@@]21C (stereo partly drawn) [compound 8]
Glucocorticoid receptor
  IC50: 0.25 nM
[1]
  % Inhibition HCP Stimulus 1846: 41% and 58% and 75%

## CCCC(=O)O[C@]1(C(=O)OC)[C@H](C)C[C@H]2[C@@H]3CC(F)C4=CC(=O)C=C[C@]4(C)[C@@]3(F)[C@@H](O)C[C@@]21C (stereo partly drawn) [compound 9]
Glucocorticoid receptor
  IC50: 0.025 nM
[2]
  Angiogenesis % Inh.: 29%
  Tumor area % (inhibition of tumor growth): 86%
[2]; mean of score 0 (no new vessels) to 4 (full blown), untreated 3.1 [A], 2.9 [B]
  Angiogenesis score: 2.2
[2]; untreated 40.7 ± 16.2 [A], 27.5 ± 15.3 [B]
  Tumor area Mn (mm^2): 5.7 ± 5.9 mm^2
[1]
  % Inhibition HCP Stimulus 1846: 32%
